Experimental data from patent publication US8129527B2, “Analogs of dehydrophenylahistins and their therapeutic use” (Nereus Pharmacuticals, Inc., priority 2006, dated 2012).
pIC50: −log10 of the molar value. Like-named read-outs stand apart in the source and are kept apart here.

How the values were obtained:
HT-29 human colon tumor = experiment: HT-29 Human Colon Tumor Xenograft Model; type: in vivo
Description: (§1) Selected novel compounds were administered as monotherapy via the intraperitoneal (i.p.) route at the doses indicated for the individual study; for the combination studies the selected reference chemotherapy agents were injected 15-30 min prior to the compound.
(§2) Saline dilutions are used to achieve the injection concentrations used for the reference compounds.
Animals were implanted subcutaneously (s.c.) by trocar with fragments of HT-29 tumors harvested from s.c. growing tumors in nude mice hosts. When the tumor size reached 5 mm×5 mm (about 10-17 days) the animals were matched into treatment and control groups. Mice were weighed twice weekly and tumor measurements were obtained using calipers twice weekly, starting on Day 1. The tumor measurements were converted to estimated mg tumor weight using the formula (W^2×L)/2. When the estimated tumor weight of the control group reached an average of 1000 mg the mice were weighed, sacrificed and the tumor removed.

MCF-7 human breast tumor = experiment: MCF-7 Human Breast Tumor Xenograft Model; type: in vivo, nude mice; settings: Breast MCF-7 (2 studies); KPU-02 7.5 mg/kg ip qdx5 + Taxotere Days 1, 3, 5
Description: (§3) Animals used were (exceptions are indicated for individual studies): female nude mice (nu/nu) between 5 and 6 weeks of age (˜20 g, Harlan); group size was 9-10 mice per group unless otherwise indicated.
as §1, §2
Female nude mice (˜20 g) were implanted s.c. with 21-day release estrogen (0.25 mg) pellets 24 hours prior to the s.c. implantation with MCF-7 tumor fragments (harvested from s.c. tumors in nude mice hosts). The study then proceeded as described for the HT-29 model, using taxotere as the standard chemotherapy agent.
In this model unless otherwise noted for the individual study, the novel compounds were injected via the intraperitoneal route daily on Days 1-5, inclusive (qdx5); taxotere was administered intravenously on Days 1, 3 and 5 (qodx3).
The doses of the compounds were administered on Days 1, 2, 3, 4, and 7; Taxotere was administered on Days 1, 3 and 7.

[1] = test system: A549 human non small cell lung tumor; experiment: A549 Human Lung Tumor Xenograft Model; type: in vivo, nude mice; settings: Lung A549 (1 study); KPU-02 7.5 mg/kg ip qdx5 + Taxotere Days 1, 3, 5
Description: as §3, §1, §2
Animals were implanted s.c. by trocar with fragments of A549 tumors harvested from s.c. growing tumors in nude mice hosts. When the tumor size reached 5 mm×5 mm (about 10-17 days) the animals were matched into treatment and control groups.

[2] = test system: MDA-231 human breast tumor; experiment: MDA-231 Human Breast Tumor Orthotopic Xenograft Model (mammary fat pad); type: in vivo, nude mice; settings: Breast MDA-231 (1 study); KPU-02 7.5 mg/kg ip Days 1, 4, 8, 11, 15 + Paclitaxel qdx5
Description: The animals used were: female nude mice (nu/ni) (MDA-231 study) or B6D2F1 (B16-F10 studies) mice between 5 and 6 weeks of age (˜20 g, Harlan); group size was 10 mice per group unless otherwise indicated.
The cell lines used were: MDA-MB-231 human breast tumor and B16-F10 murine melanoma cells.
NPI compounds were administered as monotherapy via the intraperitoneal route at the doses indicated for the individual study; for the combination studies the selected reference chemotherapy agents were injected 15-30 min prior to the NPI compound.
Female nude mice were injected in the mammary fat pad with 2×10^6 MDA-231 cells harvested from in vitro cell culture. When the tumor size reached 5 mm×5 mm (about 14-28 days) the animals were matched into treatment and control groups. The study then proceeded as described for the HT-29 model, using paclitaxel as the standard chemotherapy agent.
In this model unless otherwise noted for the individual study, the test compounds were administered via the intraperitoneal route on Days 1, 4, 8, 11 and 15 (q3dx5); paclitaxel was administered via the intraperitoneal route on Days 1-5 (qdx5).
This model involves the placement of the human tumor tissue into the mouse mammary fat pad, a surrogate of the natural environment. In this manner the possibility of a positive effect due to a specific action on the subcutaneous vascular bed is avoided.

[3] = test system: N202 mammary tumor vasculature; experiment: Murine syngeneic pseudo-orthotopic breast cancer model, dorsal skinfold chamber
Text: A murine syngeneic “pseudo-orthotopic” breast cancer model was used to address these issues. […] To create the “pseudo-orthotopic milieu,” the coverslip of a dorsal skinflap chamber was removed and small pieces of mammary fatpad from donor mice were implanted into the chamber. On top of the fatpad graft, tumor spheroids containing N202 mammary tumor cells transduced with Histone (H2B)-green fluorescent protein (GFP) were applied. The use of H2B-GFP transduced cells allows for visualizing tumor growth and monitoring mitosis and apoptosis.
Fluorescence video microscopy allows for the relatively non-invasive study of tumor microcirculation in conscious mice.
Tumor area, blood flow rate, and vascular density within and surrounding the tumor were visualized. Real-time observations were recorded at various time-points using still photos and video microscopy.

HuVEC cells = experiment: Tubulin staining assay, 200 nM, 30 min (Example 15); type: cell-based, human
Description: Human umbilical vein endothelial cells (HuVECs; Cambrex CC2519A) were maintained at subconfluent densities in EGM-2 (Cambrex) media. […] For tubulin staining assays, HuVEC cells were seeded at a density of 3×10^4 cells/ml in EGM-2 on tissue culture compatible coverslips (Fisher). The plates were returned to the incubator for 2 days.
Stock (20 mM) solutions of the test compounds were prepared in 100% DMSO. 400× concentrated dilutions of the compounds were prepared in 100% DMSO. 5 μl volumes of the dilutions were added to individual wells resulting in a final concentration of 200 nM. […] The plates were returned to the incubator for 30 minutes.
The cells were rinsed in dPBS before fixation in 10% (v/v) neutral buffered formalin for 10 minutes at room temperature. Following fixation, α-tubulin was visualized by indirect immunofluorescence. Specifically, the cells were permeabilized in 0.2% (v/v) triton X-100/dPBS for 10 minutes. The cells were washed prior to transferring the coverslips to a humidified chamber, the coverslips were blocked for two hours in antibody buffer (2% (w/v) BSA/0.1% (v/v) Tween 20/dPBS). The coverslips were incubated with 50 μl of 0.1 μg/ml mouse α-tubulin (Molecular Probes) in antibody buffer for 1 hour before washing and incubation with 50 μl of 1 μg/ml goat anti-mouse FITC (Jackson ImmunoResearch Laboratories) for one hour in the dark. […]

P22 rat sarcoma [4] = type: in vivo, rats; settings: 15 mg/kg IP
Description: In contrast, blood flow in non-tumor tissues was affected to a much lesser extent at 1 hour (see FIG. 35).

MAP-rich microtubules = experiment: Microtubule mean length distributions, transmission electron microscopy; type: biochemical, bovine; settings: in words
Description: Transmission electron microscopy was used to determine the mean length distribution of microtubules in the absence or presence of tested agent. At 75 minutes and prior to sedimentation, 10 μl aliquots from the polymer mass experiments were fixed by dilution into 290 μl PEM100-buffered 0.2% glutaraldehyde. Thirty microliters of fixed sample was settled onto formvar-coated 150 ICG mesh electron microscope grids for 90 seconds. Excess sample was wicked off with Whatman filter paper. Thirty microliters of cytochrome C (1 mg/ml) was applied for 30 seconds to enhance protofilament resolution and facilitate negative staining. Uranyl acetate (1.5%) was applied for 20 seconds and the excess was wicked off Grids were viewed in a Jeol electron microscope-1200 EX11 at 2000× and 30,000× magnification. The Zeiss MOPIII was used to determine microtubule length distributions and mean lengths for at least 100 microtubules per sample.

MCF7 cells = experiment: Immunofluorescence microscopy of spindle and interphase microtubules; type: cell-based, human; settings: at the IC50 for mitotic block, 20 hours
Description: MCF7 human breast carcinoma cells (American Type Culture Collection, Manassas, Va.) stably transfected with GFP-alpha-tubulin (Clontech, Palo Alto, Calif.) were cultured in Dulbecco's modified Eagle's medium supplemented with 5% fetal bovine serum, 0.1% penicillin/streptomycin and nonessential amino acids (Sigma) in 250-ml tissue culture flasks or 35-mm six-well plates (doubling time, 29 hours) at 37° C. in 5% CO2.
Cells were prepared as for mitotic progression, except that cells were seeded onto poly-L-lysine (50 μg/ml, Sigma) treated coverslips. On the day of staining, cells were rinsed in PBS and fixed in 10% formalin overnight at 37° C. Cells were rinsed in PBS, permeabilized in methanol at −20° C., and hydrated with PBS. Coverslips were treated with 20% normal goat serum in PBS/BSA (1%) for 1 h at room temperature. Cells were incubated in a mouse monoclonal cocktail of anti-alpha- and beta-tubulin, DM1A/DM1B diluted in PBS/BSA for 1 hour at room temperature, then stained with FITC-conjugated secondary antibody and DAPI. Coverslips were mounted using Prolong antifade media (Molecular Probes, Eugene Oreg.).

[5] = test system: MCF7 cells, GFP-alpha-tubulin; experiment: Analysis of microtubule dynamics, time-lapse microscopy; type: cell-based, human; settings: concentrations effecting 25% or 50% of maximal mitotic block
P22 rat sarcoma [6] = experiment: Tumor necrosis in the P22 rat sarcoma model; settings: 7.5 and 15 mg/kg IP, 24 hours post-dose
HT-29 human colon cells = experiment: Tumor cytotoxicity assay, resazurin fluorescence, 48 h (Example 6); type: cell-based; settings: Example 23
[7] = test system: bovine brain microtubule protein; experiment: Tubulin polymerization assay, turbidity (Example 21); type: biochemical; settings: 5 μM in 1% DMSO
Description: Polymerization of bovine brain microtubule protein (Cytoskeleton, Inc., Denver, Colo.) was monitored by an increase in turbidity at 37° C. in microtubule buffer (80 mM PIPES, pH 6.8, 1 mM MgCl2, 1 mM EGTA, 1 mM GTP, 10% glycerol). […] Turbidity was measured as an increase in optical density at 340 nm with a thermo-controlled spectrophotometer (model 680XR microplate Reader™, Bio-Rad Laboratories).

tubulin = tubulin (Bos taurus, UniProt Q6B856); experiment: Photoaffinity labeling study of tubulin; type: binding; settings: UV 365 nm, +/- colchicine
Chain of tubulin (Q6B856 whole entry): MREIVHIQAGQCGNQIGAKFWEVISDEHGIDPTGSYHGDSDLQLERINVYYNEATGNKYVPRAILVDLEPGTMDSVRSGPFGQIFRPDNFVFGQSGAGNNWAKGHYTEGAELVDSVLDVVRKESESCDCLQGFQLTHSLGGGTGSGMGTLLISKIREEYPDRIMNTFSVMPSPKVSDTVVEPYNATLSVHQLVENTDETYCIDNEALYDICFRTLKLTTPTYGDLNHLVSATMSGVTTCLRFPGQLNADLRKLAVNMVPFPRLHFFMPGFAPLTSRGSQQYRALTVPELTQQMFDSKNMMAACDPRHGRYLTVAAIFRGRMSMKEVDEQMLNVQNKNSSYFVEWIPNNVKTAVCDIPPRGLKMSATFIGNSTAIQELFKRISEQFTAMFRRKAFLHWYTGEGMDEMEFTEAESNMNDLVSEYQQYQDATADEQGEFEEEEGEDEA
Chain of tubulin (P81947 whole entry, further chain): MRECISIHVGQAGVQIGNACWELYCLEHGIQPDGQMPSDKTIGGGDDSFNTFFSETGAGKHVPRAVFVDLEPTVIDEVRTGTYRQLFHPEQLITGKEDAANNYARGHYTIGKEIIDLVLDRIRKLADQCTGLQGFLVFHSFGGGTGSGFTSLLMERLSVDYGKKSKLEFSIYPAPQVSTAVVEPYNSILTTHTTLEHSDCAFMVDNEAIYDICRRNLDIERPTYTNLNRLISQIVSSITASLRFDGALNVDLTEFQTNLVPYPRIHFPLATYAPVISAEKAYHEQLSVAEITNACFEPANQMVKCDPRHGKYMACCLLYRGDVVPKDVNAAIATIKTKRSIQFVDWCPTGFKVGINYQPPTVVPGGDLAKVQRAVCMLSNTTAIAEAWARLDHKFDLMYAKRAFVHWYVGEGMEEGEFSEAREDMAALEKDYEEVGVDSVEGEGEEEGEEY
Text: KPU-244 and KPU-244-B1 can both be photoactivated by UV light, resulting in covalent linkage to any protein via the photoreactive benzophenone group. In one embodiment, tubulin is photoaffinity labeled with KPU-244 or KPU-244-B1. Upon irradiation with UV light, the benzophenone group forms a free radical at the carbonyl group, followed by H-abstraction in the acceptor protein, insertion of the benzophenone radical into the abstracted site, and recombination to form the labeled protein.
UV-irradiated and control samples were visualized by 15% SDS-PAGE followed by Western blotting. Biotin-labeled molecular weight markers (Amersham Pharmacia Biotech) were included in each gel. Each gel was electroblotted onto a nitrocellulose membrane (Hybond-ECL, Amersham Pharmacia). The gels were then stained with Coomassie Brilliant Blue (Bio-Rad laboratories) to verify that equivalent amounts of tubulin were loaded in each lane. The nitrocellulose membrane was incubated with 5% skim milk in 100 mM phosphate-buffered saline (PBS, pH 7.4) at room temperature for 1 hour, then washed with 100 mM PBS (pH 7.4) containing 0.1% Tween 20 (PBS-T) for 20 min one time, then twice for 10 min each. The membrane was then incubated with streptavidin-horseradish peroxidase conjugate (diluted 1000-fold with PBS-T) for 1 hour at room temperature, and washed with PBS-T as described above. […]

Row | SMILES | Tumor Regression (#/total) NPI + Reference (HT-29 human colon tumor; ip, 7.5 mg/kg) | dose-dependent effect in the HT-29 model (HT-29 human colon tumor; with CPT-11) | Tumor Regression (#/total) NPI + Reference (MCF-7 human breast tumor) | Tumor Growth Inhibition (%) KPU-02 + Reference [1] | Tumor Regression (#/total) NPI + Reference [1] | Tumor Growth Inhibition (%) KPU-02 + Reference [2] | Tumor Regression (#/total) NPI + Reference [2] | tolerability ([3]; i.v. infusion 5-10 mg/kg) | effect on tumor vasculature ([3]; single i.v. treatment) | tubulin depolymerization in HuVEC cells (HuVEC cells) | tumor blood flow (P22 rat sarcoma [4]; 1 hour after administration) | tumor blood flow (P22 rat sarcoma [4]; 24 hours later) | MT nucleation (MAP-rich microtubules) | mitotic cells containing asters or foci of tubulin (MCF7 cells) | MT dynamic instability [5] | tumor necrosis (P22 rat sarcoma [6]) | pIC50 (HT-29 human colon cells) | tubulin polymerization [7] | binding to tubulin by photoaffinity labeling (tubulin)
1 | CC(C)(C)c1[nH]cnc1/C=c1\[nH]c(=O)/c(=C/c2ccccc2)[nH]c1=O [KPU-02] | 4/30 | 7.5 mg/kg was statistically greater than 2.5 mg/kg | 3/20 | 74% | 0/10 | 71% | 0/10 | well tolerated | rapid collapse of the central vasculature | rapidly induce tubulin depolymerization | 23 % of vehicle | 59 % vehicle | did not affect MT nucleation | 75% | did not have a measurable effect on MT dynamic instability | dose-dependent tumor necrosis | – | – | –
2 | CC(C)(C)c1ocnc1/C=c1\[nH]c(=O)/c(=C/c2cccc(C(=O)c3ccc(CNC(=O)CCCC[C@@H]4SC[C@@H]5NC(=O)N[C@@H]54)cc3)c2)[nH]c1=O [KPU-244-B1] | – | – | – | – | – | – | – | – | – | – | – | – | – | – | – | – | 6.04 | inhibit tubulin polymerization | selectively binds and covalently reacts with tubulin at the colchicine binding site
